Results on 8 compounds are retold here after article PMC1242219, “Anthracyclines, proteasome activity and multi-drug-resistance” (BMC Cancer, 2005).

One data set has as its target T1, 26S proteasome (Homo sapiens, UniProt P28074).
T1 construct: endogenous in cells; host or cells: ECV304 cells, crude extract
T1 sequence (P28074 60-263): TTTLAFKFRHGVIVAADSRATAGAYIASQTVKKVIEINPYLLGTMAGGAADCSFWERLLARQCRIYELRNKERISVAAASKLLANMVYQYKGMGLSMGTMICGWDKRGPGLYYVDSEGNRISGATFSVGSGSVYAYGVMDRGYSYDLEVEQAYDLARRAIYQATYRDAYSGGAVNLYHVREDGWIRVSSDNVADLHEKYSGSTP
Briefly: Chymotrypsin-like 26S proteasome function in crude cell extracts (SucLLVY-AMC fluorogenic peptide assay). The class given is biochemical. The following applies: for Chymotryptic 26S Proteasome Activity in Lysates from ECV 304 Cells: activity relative to 0 μM = 1, mean ± SEM; for Effect on 26S proteasome function: data not shown. The procedure:
(§1) 20S and 26S proteasome function was measured as described previously (20). Briefly, cells were washed with PBS, then with buffer I (50 mM Tris, pH 7.4, 2 mM DTT, 5 mM MgCl2, 2 mM ATP), and pelleted by centrifugation. Glass beads and homogenization buffer (50 mM Tris, pH 7.4, 1 mM DTT, 5 mM MgCl2, 2 mM ATP, 250 mM sucrose) were added and vortexed for 1 minute. Beads and cell debris were removed by centrifugation at 1,000 × g for 5 minutes and 10,000 × g for 20 minutes. Protein concentration was determined by the BCA protocol (Pierce). One hundred μg protein of each sample was diluted with buffer I to a final volume of 1000 μl and the fluorogenic proteasome substrate SucLLVY-7-amido-4-methylcoumarin (chymotrypsin-like, Sigma) was added in a final concentration of 80 μM in 1% DMSO. To access 20S function, buffer I was replaced by an ATP-free buffer containing SDS (20 mM HEPES, pH 7.8; 0.5 mM EDTA, 0.03% SDS). Cleavage activity was monitored continuously by detection of free 7-amido-4-methylcoumarin using a fluorescence plate reader (Gemini, Molecular Devices) at 380/460 nm and 37°C. As controls for drug studies, 7-amido-4-methylcoumarin (AMC, 2 μM) was incubated with drugs in buffer I without cell extracts and measurements of proteasome function were corrected when necessary.

The target of the next data set is T2, 20S proteasome (Homo sapiens, UniProt P28074).
T2 construct: Chymotryptic 20S Proteasome Activity in Lysates from ECV 304 Cells; endogenous in cells; host or cells: ECV304 cells, crude extract
T2 sequence (P28074 60-263): T1 sequence (P28074 60-263)
The experiment in a line: Chymotrypsin-like 20S proteasome function in crude cell extracts (ATP-free buffer with SDS, SucLLVY-AMC). It is filed as biochemical. Here is the method:
as §1

In data set [1] the test system is proteasome function (Ub-GFP accumulation) in ECV304/10 cells. The experiment in a line: Proteasome function in living ECV304/10 cells stably transfected with Ub-R-GFP fusion protein (fluorescence microscopy). The following applies: 100 μM. The class given is cell-based, human. The procedure: ECV304 cells were plated at a density of 250.000 cells/well into six-well plates twelve hours before transfection. Cells were transfected with 5 μg of a plasmid (pEGFP-N1, Clontech) coding for an ubiquitin (Ub)-R-GFP fusion protein under control of a CMV promoter (a kind gift from Dr. M. Masucci, Karolinska Institute, Sweden) using the Superfect transfection kit (Qiagen) and following the manufacturer's instructions. Transfected cells were maintained in DMEM (10 % FSC, 1 % penicillin/streptomycin) supplemented with 500 μg/ml G418 (Sigma) and clones were obtained.

Another data set addresses T3, P-glycoprotein (Homo sapiens, UniProt P08183).
T3 construct: accumulation of daunorubicin in KB 8-5 cells that overexpress P-glycoprotein; endogenous in cells; host or cells: KB 8.5 (KB 8-5) cells, maintained under colchicine selection
The experiment in a line: Drug accumulation assay: daunorubicin fluorescence in P-gp overexpressing KB 8-5 cells. The following applies: different doses of MG-132 (0, 6.25, 12.5, 25, 50 μM), daunorubicin 10 μM, 45 minutes. It is filed as cell-based.

For a further data set, the system named is ECV304 cells. Briefly: Drug accumulation assay: doxorubicin in cytoplasm and nuclear fraction of ECV304 cells. It is filed as cell-based, human. Conditions: MG-132 25 μM. The procedure: Stock solutions of all cytotoxic drugs were obtained from the hospital pharmacy of the University Clinic Freiburg. […] Control cells were subjected to DMSO treatment alone (0.5 %).
Growth medium on cells was replaced by PBS for 40 minutes at 37°C. This was replaced by fresh PBS containing daunorubicin or doxorubicin and MG-132 or anthracyclines alone. […] After drug treatment, the cells were washed twice with PBS, re-suspended in either 4 ml lysis buffer (0.3 M sucrose, 0.05 mM EGTA pH 8.0, 60 mM KCl, 15 mM NaCl, 15 mM HEPES pH 7.5, 150 μM spermine, 50 μM spermidine) containing 20 μl triton X-100 for nuclear isolation or 400 μl of 50% ethanol in 1 M HCl (v/v) for whole cell lysis. For the latter, cells were vortexed and diluted with water to a final volume of 1.4 ml. The cells in lysis buffer were mixed and left on ice for 15 minutes before centrifuging. The nuclei (pellet) were then vortexed with 400 μl HCl/isopropanol.

Another data set has as its system KB 8.5 cells. Briefly: Apoptosis / morphological toxicity of KB 8.5 cells treated with MG-132. The class given is cell-based, human. From the text:
The human epitheloid carcinoma cell line KB 8-5 is a well-characterized tumor cell line that over-expresses mdr-1 with associated MDR.

Setting [2] is: crude extracts of ECV304 cells, 0 – 100 μM drug, read-out: IC50, inhibition of 26S proteasome function.
Where [3] appears, read: 6.25 μM, activity relative to 0 μM = 1, mean ± SEM.
[4] abbreviates: 25 μM, activity relative to 0 μM = 1, mean ± SEM.
[5] abbreviates: 50 μM, activity relative to 0 μM = 1, mean ± SEM.
Setting [6] is: 100 μM, activity relative to 0 μM = 1, mean ± SEM.

Molecules are shown by their SMILES. Like-named read-outs stand apart in the source and are kept apart here. Peptide text beside a SMILES is read from it. * marks the point of attachment. Cbz = O=C(OCc1ccccc1)*

T3 sequence (P08183 whole entry): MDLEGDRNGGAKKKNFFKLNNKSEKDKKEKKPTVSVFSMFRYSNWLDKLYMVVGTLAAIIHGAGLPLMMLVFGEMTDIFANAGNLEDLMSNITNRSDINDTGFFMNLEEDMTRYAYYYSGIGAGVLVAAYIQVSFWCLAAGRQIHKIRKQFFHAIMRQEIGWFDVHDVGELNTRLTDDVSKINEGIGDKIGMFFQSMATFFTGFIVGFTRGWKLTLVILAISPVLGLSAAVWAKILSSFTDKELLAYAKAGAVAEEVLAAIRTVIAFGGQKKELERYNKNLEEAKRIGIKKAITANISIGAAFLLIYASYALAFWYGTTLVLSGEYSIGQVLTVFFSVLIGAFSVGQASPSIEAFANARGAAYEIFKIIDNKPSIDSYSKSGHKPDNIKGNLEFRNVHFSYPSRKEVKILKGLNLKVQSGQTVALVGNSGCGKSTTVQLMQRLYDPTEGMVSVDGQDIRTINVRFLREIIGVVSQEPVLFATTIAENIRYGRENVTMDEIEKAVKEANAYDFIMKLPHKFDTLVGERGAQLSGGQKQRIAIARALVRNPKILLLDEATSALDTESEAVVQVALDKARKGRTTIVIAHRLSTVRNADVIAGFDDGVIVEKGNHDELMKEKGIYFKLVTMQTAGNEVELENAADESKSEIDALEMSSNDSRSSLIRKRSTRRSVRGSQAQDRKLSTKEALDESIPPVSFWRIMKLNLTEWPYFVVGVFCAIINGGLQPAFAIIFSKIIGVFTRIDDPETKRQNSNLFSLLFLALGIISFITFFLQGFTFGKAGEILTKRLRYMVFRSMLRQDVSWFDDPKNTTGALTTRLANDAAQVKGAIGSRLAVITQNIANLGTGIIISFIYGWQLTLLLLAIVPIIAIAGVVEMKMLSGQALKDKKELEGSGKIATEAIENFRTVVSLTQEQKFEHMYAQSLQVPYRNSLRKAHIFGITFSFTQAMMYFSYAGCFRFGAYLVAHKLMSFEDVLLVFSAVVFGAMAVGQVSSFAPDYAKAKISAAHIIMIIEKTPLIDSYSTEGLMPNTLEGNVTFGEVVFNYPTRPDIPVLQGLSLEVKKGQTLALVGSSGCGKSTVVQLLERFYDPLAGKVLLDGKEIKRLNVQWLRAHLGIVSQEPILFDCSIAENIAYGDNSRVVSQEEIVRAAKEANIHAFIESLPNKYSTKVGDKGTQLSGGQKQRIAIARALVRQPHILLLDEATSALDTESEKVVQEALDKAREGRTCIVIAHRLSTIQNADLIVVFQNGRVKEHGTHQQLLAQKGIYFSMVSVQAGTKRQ
Protocol for P-glycoprotein: Every 21 days P-gp-positive KB 8.5 cells were selected by addition of colchicine (10 ng/ml, Sigma). 24 hours before drug treatment cells were plated into 6-well plates (Costar) at a density of 10^6 cells/well.
Growth medium on cells was replaced by PBS for 40 minutes at 37°C. […] After drug treatment, the cells were washed twice with PBS, re-suspended in either 4 ml lysis buffer (0.3 M sucrose, 0.05 mM EGTA pH 8.0, 60 mM KCl, 15 mM NaCl, 15 mM HEPES pH 7.5, 150 μM spermine, 50 μM spermidine) containing 20 μl triton X-100 for nuclear isolation or 400 μl of 50% ethanol in 1 M HCl (v/v) for whole cell lysis. For the latter, cells were vortexed and diluted with water to a final volume of 1.4 ml. The cells in lysis buffer were mixed and left on ice for 15 minutes before centrifuging. The nuclei (pellet) were then vortexed with 400 μl HCl/isopropanol.

For orientation: IC50 means the concentration that gives 50% inhibition. `COc1cccc2c1C(=O)c1c(O)c3c(c(O)c1C2=O)C[C@@](O)(C(=O)CO)C[C@@H]3O[C@H]1C[C@H](N)[C@H](O)[C@H](C)O1` [doxorubicin]: the IC50 came out at 65.5 µM against 26S proteasome and 5.8 µM against 20S proteasome. Moreover, the “GFP accumulation indicating inhibition of proteasome function in living cells” value in data set [1] (ECV304/10 cells, 12 hours) is listed as “GFP accumulated throughout the cytoplasm”.
On to `CC(=O)[C@]1(O)Cc2c(O)c3c(c(O)c2[C@@H](O[C@H]2C[C@H](N)[C@H](O)[C@H](C)O2)C1)C(=O)c1ccccc1C3=O` [idarubicin], for which the “Chymotryptic 26S Proteasome Activity in Lysates from ECV 304 Cells” value at 26S proteasome (6.25 μM) was 0.97 ± 0.03 n.s; at 26S proteasome (12.5 μM), 0.96 ± 0.02 n.s; at 26S proteasome (25 μM), 0.79 ± 0.12 n.s; at 26S proteasome (50 μM) it was 0.28 ± 0.09; on 26S proteasome (100 μM), 0.1 ± 0.06. Further, the IC50 on 26S proteasome (setting [2]) came to 38.6 µM; against 20S proteasome (crude extracts of ECV304 cells), 92 µM. In addition, the “Chymotryptic 20S Proteasome Activity in Lysates from ECV 304 Cells” value on 20S proteasome (setting [3]) stood at 0.67 ± 0.07; at 20S proteasome (12.5 μM, activity relative to 0 μM = 1, mean ± SEM), 0.67 ± 0.08; at 20S proteasome (setting [4]), 0.69 ± 0.05; on 20S proteasome (setting [5]) it was 0.67 ± 0.05; at 20S proteasome (setting [6]), 0.49 ± 0.11.
In the case of `COc1cccc2c1C(=O)c1c(O)c3c(c(O)c1C2=O)C[C@@](O)(C(C)=O)C[C@@H]3O[C@H]1C[C@H](N)[C@H](O)[C@H](C)O1` [daunorubicin], the “Chymotryptic 26S Proteasome Activity in Lysates from ECV 304 Cells” value at 26S proteasome (6.25 μM) came to 0.85 ± 0.05; on 26S proteasome (12.5 μM), 0.53 ± 0.11; on 26S proteasome (25 μM), 0.22 ± 0.09; at 26S proteasome (50 μM), 0.12 ± 0.06; at 26S proteasome (100 μM), 0.11 ± 0.06. In addition, the 50% inhibitory concentration (IC50) on 26S proteasome (setting [2]) came out at 13.7 µM. Moreover, the “Chymotryptic 20S Proteasome Activity in Lysates from ECV 304 Cells” value at 20S proteasome stood at 0.64 ± 0.07 n.s; on 20S proteasome (setting [3]), 0.62 ± 0.19 n.s; at 20S proteasome (setting [4]), 0.81 ± 0.05 n.s; at 20S proteasome (setting [5]), 0.95 ± 0.04 n.s; on 20S proteasome (setting [6]), 1.05 ± 0.1 n.s. Further, the “Inhibition of 20S proteasome function” value on 20S proteasome (crude extracts of ECV304 cells, up to 100 μM) is on record as “not”. Also, the “GFP accumulation indicating proteasome inhibition in living cells” value in data set [1] (ECV304 Ub-GFP cells, 16 h (Figure 2 legend)) is “accumulation of GFP throughout the cytoplasm”.
Consider `CO[C@@]12[C@H](COC(N)=O)C3=C(C(=O)C(C)=C(N)C3=O)N1C[C@@H]1N[C@@H]12` [mitomycin C], for which the “Effect on 26S proteasome function” value on 26S proteasome (crude extracts of ECV304 cells) is “no measurable effect”.
Consider `COc1cccc2c1C(=O)c1c(O)c3c(c(O)c1C2=O)C[C@@](O)(C(=O)CO)C[C@@H]3O[C@H]1C[C@H](N)[C@@H](O)[C@H](C)O1` [epirubicin], for which the concentration for half-maximal inhibition (IC50) on 26S proteasome turned out to be 29.2 µM; at 20S proteasome it was 12.5 µM.
Turning to `Nc1ccn([C@@H]2O[C@H](CO)[C@@H](O)C2(F)F)c(=O)n1` [gemcitabine], the “Effect on 26S proteasome function” value on 26S proteasome (crude extracts of ECV304 cells) is recorded as “no measurable effect”.
Take `CC(C)C[C@@H](C=O)NC(=O)[C@H](CC(C)C)NC(=O)[C@H](CC(C)C)NC(=O)OCc1ccccc1` [MG-132] (Cbz-Leu-Leu-Leu-aldehyde): at P-glycoprotein, the “Accumulation of daunorubicin in KB 8-5 cells” value is on record as “increased, dose-dependent accumulation of daunorubicin”. Further, the “Uptake of doxorubicin in the cytoplasm and in the nuclear fraction” value in the data set with ECV304 cells is “increased uptake of doxorubicin”. For the same compound, the “Morphological signs of toxicity” value in the data set with KB 8.5 cells (KB 8-5 cells, 50 μM, 45 minutes of incubation) was “no morphological signs of toxicity”. Moreover, the Induction of apoptosis result with KB 8.5 cells (KB 8.5 cells, 3.125 to 50 μM, within 24 hours, preliminary experiments) is on record as “induced apoptosis”.
Consider `CC[C@@]1(O)C(=O)OCc2c1cc1n(c2=O)Cc2cc3c(CN(C)C)c(O)ccc3nc2-1` [Topotecan, topotecan], for which the “Effect on 26S proteasome function” value at 26S proteasome (crude extracts of ECV304 cells) is “no measurable effect”.
